According to patent US20220125784A1, “METHODS AND COMPOUNDS FOR INHIBITION OF INACTIVATION OF VOLTAGE-GATED SODIUM CHANNELS” (SIMON FRASER UNIVERSITY, priority 2019, published 2022):
Entries after “also recorded” stand apart in the source; their conditions may differ.

Legend:
WT Nav1.5-α subunits [1] = molecular target: T1, WT Nav1.5-α subunits (Homo sapiens, UniProt Q14524); assay: Whole-cell patch clamp, single voltage-pulse protocol (peak INa, conductance, fast inactivation) in transiently transfected HEK293 cells; assay type: cell-based; conditions: for Peak INa −20 mV: normalized peak INa, 37° C.; for Peak INa Slope: Hill curve slope; for IC50: Hill curve; for IC50 / effect on peak INa: single voltage-pulse protocol; for effect on fast inactivation kinetics: open-state voltages between −30 and +10 mV
T1 construct: expressed in transfected cells; host or cells: HEK293 (transient transfection)
T1 sequence (Q14524 whole entry): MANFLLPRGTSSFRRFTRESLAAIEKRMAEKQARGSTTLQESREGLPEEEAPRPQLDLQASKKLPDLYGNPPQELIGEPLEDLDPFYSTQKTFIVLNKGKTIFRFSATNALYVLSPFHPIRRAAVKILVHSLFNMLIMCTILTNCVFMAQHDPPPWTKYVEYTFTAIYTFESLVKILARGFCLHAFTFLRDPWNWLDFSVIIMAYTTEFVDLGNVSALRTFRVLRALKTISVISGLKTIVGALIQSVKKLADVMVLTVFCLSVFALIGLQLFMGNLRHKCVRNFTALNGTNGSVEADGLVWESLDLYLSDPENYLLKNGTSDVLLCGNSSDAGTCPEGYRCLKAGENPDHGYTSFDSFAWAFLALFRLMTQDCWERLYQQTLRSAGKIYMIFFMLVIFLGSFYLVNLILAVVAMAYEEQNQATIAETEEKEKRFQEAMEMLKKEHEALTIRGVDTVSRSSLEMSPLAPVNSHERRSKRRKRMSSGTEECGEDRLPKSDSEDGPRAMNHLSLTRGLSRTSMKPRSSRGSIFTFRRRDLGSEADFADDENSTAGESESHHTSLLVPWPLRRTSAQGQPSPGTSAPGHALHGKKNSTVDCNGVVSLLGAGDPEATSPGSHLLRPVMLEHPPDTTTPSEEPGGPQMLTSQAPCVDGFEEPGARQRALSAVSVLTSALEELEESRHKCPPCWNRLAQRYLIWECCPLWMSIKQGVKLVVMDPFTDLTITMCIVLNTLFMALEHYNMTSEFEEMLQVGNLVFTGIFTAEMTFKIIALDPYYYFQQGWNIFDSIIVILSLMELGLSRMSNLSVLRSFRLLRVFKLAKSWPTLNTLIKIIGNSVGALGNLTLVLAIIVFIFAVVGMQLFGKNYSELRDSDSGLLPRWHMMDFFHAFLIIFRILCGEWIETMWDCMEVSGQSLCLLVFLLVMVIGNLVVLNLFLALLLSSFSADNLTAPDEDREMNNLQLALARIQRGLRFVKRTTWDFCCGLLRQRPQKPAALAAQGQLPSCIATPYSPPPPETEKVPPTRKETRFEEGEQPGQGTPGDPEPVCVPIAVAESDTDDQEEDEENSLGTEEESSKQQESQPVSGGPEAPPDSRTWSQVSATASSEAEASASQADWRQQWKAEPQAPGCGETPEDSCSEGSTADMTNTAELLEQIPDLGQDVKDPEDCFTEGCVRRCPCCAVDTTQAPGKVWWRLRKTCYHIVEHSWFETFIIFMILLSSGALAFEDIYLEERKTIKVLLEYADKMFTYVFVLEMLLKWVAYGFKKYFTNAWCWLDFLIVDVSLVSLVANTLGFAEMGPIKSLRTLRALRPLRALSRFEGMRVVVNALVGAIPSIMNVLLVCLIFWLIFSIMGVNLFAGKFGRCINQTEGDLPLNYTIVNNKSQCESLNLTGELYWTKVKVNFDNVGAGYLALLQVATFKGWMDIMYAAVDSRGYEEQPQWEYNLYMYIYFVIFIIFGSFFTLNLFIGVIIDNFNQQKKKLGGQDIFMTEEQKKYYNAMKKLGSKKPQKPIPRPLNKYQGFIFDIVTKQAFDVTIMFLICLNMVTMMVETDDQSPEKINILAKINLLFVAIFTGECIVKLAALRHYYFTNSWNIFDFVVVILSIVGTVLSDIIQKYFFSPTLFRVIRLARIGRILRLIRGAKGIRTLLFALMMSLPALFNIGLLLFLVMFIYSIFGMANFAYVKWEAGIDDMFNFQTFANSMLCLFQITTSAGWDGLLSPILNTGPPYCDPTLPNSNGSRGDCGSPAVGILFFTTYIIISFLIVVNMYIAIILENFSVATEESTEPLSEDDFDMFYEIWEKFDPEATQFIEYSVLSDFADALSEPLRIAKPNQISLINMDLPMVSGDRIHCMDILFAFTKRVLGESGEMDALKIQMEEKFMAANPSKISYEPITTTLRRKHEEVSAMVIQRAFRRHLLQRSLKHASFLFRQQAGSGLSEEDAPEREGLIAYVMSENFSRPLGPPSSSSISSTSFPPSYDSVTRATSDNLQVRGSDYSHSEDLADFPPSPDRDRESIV
Method: (§1) In one set of studies, we used a whole-cell patch clamp technique with single voltage-pulse protocols (FIGS. 3A-B) to characterize compounds ZINC38767171, ZINC39699427, ZINC40014265, ZINC64470729, ZINC64470737 and ZINC64470745. Whole-cell patch clamp was performed in extracellular solution containing (in mM): 140 NaCl, 4 KCl, 2 CaCl2, 1 MgCl2, and 10 HEPES (pH 7.4 adjusted with CsOH). The intracellular pipettes were dipped in dental wax and thermally polished to attain a resistance of 1.0-1.5 MΩ. The intracellular solutions contained (in mM): 130 CsF, 10 NaCl, 10 HEPES, and 10 EGTA titrated to pH 7.4. The six compounds, ZINC38767171, ZINC39699427, ZINC40014265, ZINC64470729, ZINC64470737 and ZINC64470745, chosen for electrophysiology characterization, ordered from MolPort (Easy compound ordering services), were diluted to 10 μM, 50 μM, and 100 μM in extracellular solution for biophysical assessment of channel gating.
(§2) The six compounds were screened against wild type (WT) Nav1.5-α subunits at the optimal physiological temperature of 37° C. Human Embryonic Kidney (HEK293) cells were transfected with WT Nav1.5-α subunits (transient transfections). The α subunits were co-expressed with the β1 subunit and eGFP (enhanced green fluorescence protein) in a 2:1:2 ratio, respectively.
Conductance was measured by a protocol that depolarized the membrane from −100 mV to +80 mV in increments of +5 mV for 19 ms. Prior to the test pulse, channels were allowed to recover from fast inactivation at −130 mV for 197 ms. The tested compounds had no effect on the conductance midpoint (FIGS. 6A-F).
At voltages greater than −50 mV, the fast inactivation T values were calculated from the mono-exponential fit to the decay of sodium current.

WT Nav1.5-α subunits [2] = molecular target: T1, WT Nav1.5-α subunits; assay: Whole-cell patch clamp, use-dependence (slow inactivation) protocol at 6 Hz in transiently transfected HEK293 cells; assay type: cell-based; conditions: for UDI Block Slope: Hill curve slope; for IC50: Hill curve, use-dependence at 6 Hz, read-out: UDI Block IC50
Method: as §1, §2
Slow inactivation (SI) was indirectly determined by measuring use-dependence, which is a physiologically-relevant protocol. The protocol includes a series of 500 110 ms depolarizing pulses to 0 mV followed by a 55 ms-90 mV recovery pulse at a frequency 6 Hz. With repetitive depolarizations, Nav1.5 channels accumulate into slow inactivation.

SMILES	% Block −20 mV (WT Nav1.5-α subunits [1]; 10 μM)	fast inactivation onset time constant FI +10 mV (WT Nav1.5-α subunits [1]; 10 μM)	fast inactivation onset time constant FI −10 mV (WT Nav1.5-α subunits [1]; 10 μM)	fast inactivation onset time constant FI −30 mV (WT Nav1.5-α subunits [1]; 10 μM)	fast inactivation onset time constant FI −50 mV (WT Nav1.5-α subunits [1]; 10 μM)	Peak INa −20 mV (WT Nav1.5-α subunits [1]; 10 μM)	% Block −20 mV (WT Nav1.5-α subunits [1]; 50 μM)	fast inactivation onset time constant FI +10 mV (WT Nav1.5-α subunits [1]; 50 μM)	fast inactivation onset time constant FI −10 mV (WT Nav1.5-α subunits [1]; 50 μM)	fast inactivation onset time constant FI −30 mV (WT Nav1.5-α subunits [1]; 50 μM)	fast inactivation onset time constant FI −50 mV (WT Nav1.5-α subunits [1]; 50 μM)	Peak INa −20 mV (WT Nav1.5-α subunits [1]; 50 μM)	% Block −20 mV (WT Nav1.5-α subunits [1]; 100 μM)	fast inactivation onset time constant FI +10 mV (WT Nav1.5-α subunits [1]; 100 μM)	fast inactivation onset time constant FI −10 mV (WT Nav1.5-α subunits [1]; 100 μM)	fast inactivation onset time constant FI −30 mV (WT Nav1.5-α subunits [1]; 100 μM)	fast inactivation onset time constant FI −50 mV (WT Nav1.5-α subunits [1]; 100 μM)	Peak INa −20 mV (WT Nav1.5-α subunits [1]; 100 μM)	Peak INa Slope (WT Nav1.5-α subunits [1])	IC50 (WT Nav1.5-α subunits [1])	further results
O=C1N=c2ccc(C(=O)NCc3ccco3)cc2=NC1=O [ZINC38767171, N-(2-furylmethyl)-2,3-dioxo-quinoxaline-6-carboxamide]	−24.21%	0.25 ± 0.05 ms	0.39 ± 0.06 ms	0.71 ± 0.12 ms	1.70 ± 0.33 ms	−0.72 ± 0.06	−37.89%	0.34 ± 0.06 ms	0.58 ± 0.08 ms	0.94 ± 0.10 ms	1.79 ± 0.15 ms	−0.59 ± 0.11	−38.95%	0.41 ± 0.11 ms	0.60 ± 0.13 ms	1.05 ± 0.21 ms	1.92 ± 0.38 ms	−0.58 ± 0.10	1.697	7.61 µM	effect on fast inactivation kinetics (WT Nav1.5-α subunits [1]): significantly decelerated; also recorded: decelerate fast inactivation kinetics, but not significantly; UDI Block Slope (WT Nav1.5-α subunits [2]): 3.161; IC50 (WT Nav1.5-α subunits [2]): 0.251 µM
C=CCNS(=O)(=O)c1ccc2c(c1)=NC(=O)N=2 [ZINC39699427, N-allyl-2-oxo-benzimidazole-5-sulfonamide]	−34.00%	0.21 ± 0.03 ms	0.31 ± 0.04 ms	0.54 ± 0.09 ms	1.32 ± 0.24 ms	−0.66 ± 0.04	−42.00%	0.25 ± 0.03 ms	0.35 ± 0.04 ms	0.63 ± 0.08 ms	1.46 ± 0.09 ms	−0.58 ± 0.06	−47.00%	0.26 ± 0.02 ms	0.40 ± 0.03 ms	0.72 ± 0.04 ms	1.61 ± 0.18 ms	−0.53 ± 0.07	0.236	6.45 µM	effect on peak INa (WT Nav1.5-α subunits [1]): considerably blocked peak INa at low concentrations; effect on use-dependence (WT Nav1.5-α subunits [2]; 6 Hz): significantly increases; UDI Block Slope (WT Nav1.5-α subunits [2]): 4.556; IC50 (WT Nav1.5-α subunits [2]): 0.196 µM
COc1cccc(NS(=O)(=O)c2ccc3c(c2)=NC(=O)N=3)c1 [ZINC64470729, N-(3-methoxyphenyl)-2-oxo-benzimidazole-5-sulfonamide]	−22.68%	0.26 ± 0.04 ms	0.40 ± 0.08 ms	0.70 ± 0.14 ms	1.67 ± 0.21 ms	−0.75 ± 0.05	−25.77%	0.26 ± 0.02 ms	0.40 ± 0.03 ms	0.75 ± 0.07 ms	1.97 ± 0.29 ms	−0.72 ± 0.06	−38.14%	0.23 ± 0.03 ms	0.39 ± 0.02 ms	0.76 ± 0.09 ms	1.71 ± 0.22 ms	−0.60 ± 0.26	0.389	34.6 µM	effect on fast inactivation kinetics (WT Nav1.5-α subunits [1]): significantly decelerated; UDI Block Slope (WT Nav1.5-α subunits [2]): −0.194; IC50 (WT Nav1.5-α subunits [2]): 40.7 µM
CCc1ccccc1NS(=O)(=O)c1ccc2c(c1)=NC(=O)N=2 [ZINC64470737, N-(2-ethylphenyl)-2-oxo-benzimidazole-5-sulfonamide]	−22.45%	0.31 ± 0.06 ms	0.41 ± 0.07 ms	0.66 ± 0.09 ms	1.37 ± 0.31 ms	−0.76 ± 0.13	−40.82%	0.39 ± 0.02 ms	0.64 ± 0.08 ms	1.02 ± 0.13 ms	1.88 ± 0.27 ms	−0.58 ± 0.10	−74.49%	0.49 ± 0.00 ms	0.66 ± 0.00 ms	0.96 ± 0.00 ms	1.82 ± 0.00 ms	−0.25 ± 0.00	14.37	9.86 µM	effect on fast inactivation kinetics (WT Nav1.5-α subunits [1]): significantly decelerated; also recorded: decelerates fast inactivation kinetics the most; UDI Block Slope (WT Nav1.5-α subunits [2]): 0.710; IC50 (WT Nav1.5-α subunits [2]): 95.1 µM
Cc1cc(F)ccc1NS(=O)(=O)c1ccc2c(c1)=NC(=O)N=2 [ZINC64470745, N-(4-fluoro-2-methyl-phenyl)-2-oxo-benzimidazole-5-sulfonamide]	−23.71%	0.27 ± 0.03 ms	0.37 ± 0.03 ms	0.66 ± 0.04 ms	2.12 ± 0.34 ms	−0.74 ± 0.06	−12.37%	0.25 ± 0.02 ms	0.37 ± 0.03 ms	0.63 ± 0.05 ms	1.75 ± 0.34 ms	−0.85 ± 0.08	−24.74%	0.28 ± 0.04 ms	0.45 ± 0.07 ms	0.81 ± 0.12 ms	1.79 ± 0.20 ms	−0.73 ± 0.04	16.06	0.928 µM	plateau of drug block on sodium current (WT Nav1.5-α subunits [1]; attained at concentrations above 10 μM): −20%; effect on fast inactivation kinetics (WT Nav1.5-α subunits [1]): significantly decelerated; effect on peak INa (WT Nav1.5-α subunits [1]): blocked peak INa the least; also recorded: does not reduce peak Na at concentrations above 10 μM; UDI Block Slope (WT Nav1.5-α subunits [2]): 0.289; IC50 (WT Nav1.5-α subunits [2]): 901 µM
